Reference: patent US20150259331A1, “PROTOZOAN PARASITE GROWTH INHIBITORS” (Northeastern University, priority 2014, published 2015)

Legend:
[1] = tested on: T. brucei brucei Lister 427; assay: Trypanosome replication assay; format: cell-based, Trypanosoma brucei brucei; details: Trypanosoma brucei, 48 h, concentration giving 50% inhibition of growth of T brucei brucei Lister 427 cells; 48 h; values ±7%; read-out: Tbb EC50
HepG2 cells = assay: HepG2 cell toxicity (MTT) assay; format: cell-based; details: Table 13; read-out: HepG2 TC50
T. cruzi = T. cruzi growth inhibition; format: cell-based, Trypanosoma cruzi; details: Trypanosoma cruzi
L. major promastigote = L. major promastigote assay; format: cell-based; details: Leishmania major
L. major amastigote = L. major amastigote assay; format: cell-based; details: Leishmania major
P. fal = P. fal assay of Table 13 (strain not given); format: cell-based, P. falciparum; details: Plasmodium falciparum

| EC50 [1] | EC50 (T. cruzi) | EC50 (L. major promastigote) | EC50 (L. major amastigote) | EC50 (P. fal) | Structure (SMILES) | CC50 (HepG2 cells) |
| --- | --- | --- | --- | --- | --- | --- |
| 0.73 µM | 4.7 µM | 1.3 µM | 2.2 µM | 0.086 µM | CN1CCCN(S(=O)(=O)c2ccc(-c3ccc4ccnc(Nc5ccc(OCc6cccc(F)c6)c(Cl)c5)c4c3)cc2)CC1 [NEU-962, N-(3-Chloro-4-((3-fluorobenzyl)oxy)phenyl)-7-(4-((4-methyl-1,4-diazepan-1-yl)sulfonyl)phenyl)isoquinolin-1-amine] |  |
| 0.39 µM | 33 µM | 0.44 µM | 4.4 µM | 0.41 µM | CN1CCCN(S(=O)(=O)c2ccc(-c3ccc4c(Nc5ccc(OCc6cccc(F)c6)c(Cl)c5)nccc4c3)cc2)CC1 [NEU-963, N-(3-Chloro-4-((3-fluorobenzyl)oxy)phenyl)-6-(4-((4-methyl-1,4-diazepan-1-yl)sulfonyl)phenyl)isoquinolin-1-amine] |  |
| 0.98 µM | > 50 µM | > 15 µM | 1.9 µM | 0.13 µM | CN1CCN(S(=O)(=O)c2ccc(-c3ccc4nncc(Nc5ccc(OCc6cccc(F)c6)c(Cl)c5)c4c3)cc2)CC1 [NEU-1003, N-(3-Chloro-4-((3-fluorobenzyl)oxy)phenyl)-6-(4-((4-methylpiperazin-1-yl)sulfonyl)phenyl)cinnolin-4-amine] |  |
| 1 µM | 3.1 µM | 5.7 µM | 2 µM | 0.014 µM | CN1CCN(S(=O)(=O)c2ccc(-c3ccc4c(Nc5ccc(OCc6cccc(F)c6)c(Cl)c5)cnnc4c3)cc2)CC1 [NEU-1016, N-(3-Chloro-4-((3-fluorobenzyl)oxy)phenyl)-7-(4-((4-methylpiperazin-1-yl)sulfonyl)phenyl)cinnolin-4-amine] |  |
| 0.29 µM | > 50 µM | > 15 µM | 1.7 µM | 0.11 µM | Fc1cccc(COc2ccc(Nc3nncc4ccc(-c5cccc(N6CCOCC6)c5)cc34)cc2Cl)c1 [NEU-1035, N-(3-Chloro-4-((3-fluorobenzyl)oxy)phenyl)-7-(3-morpholinophenyl)phthalazin-1-amine] |  |
| 1.4 µM | > 50 µM | > 15 µM | 2.2 µM | 0.24 µM | Fc1cccc(COc2ccc(Nc3nncc4cc(-c5cccc(N6CCOCC6)c5)ccc34)cc2Cl)c1 [NEU-1037, N-(3-Chloro-4-((3-fluorobenzyl)oxy)phenyl)-6-(3-morpholinophenyl)phthalazin-1-amine] |  |

Second part, the compound before the results:

| Structure (SMILES) | EC50 [1] | EC50 (T. cruzi) | EC50 (L. major promastigote) | EC50 (L. major amastigote) | EC50 (P. fal) | CC50 (HepG2 cells) |
| --- | --- | --- | --- | --- | --- | --- |
| Fc1cccc(COc2ccc(Nc3ccnc4cc(-c5cccc(N6CCOCC6)c5)ccc34)cc2Cl)c1 [NEU-942, N-(3-Chloro-4-((3-fluorobenzyl)oxy)phenyl)-7-(3-morpholinophenyl)quinolin-4-amine] | 1.2 µM | 2.7 µM | 1.4 µM | > 3 µM | 0.061 µM | > 5 µM |
| CN1CCCN(S(=O)(=O)c2ccc(-c3ccc4c(Nc5ccc(OCc6cccc(F)c6)c(Cl)c5)ccnc4c3)cc2)CC1 [NEU-943, N-(3-Chloro-4-((3-fluorobenzyl)oxy)phenyl)-7-(4-((4-methyl-1,4-diazepan-1-yl)sulfonyl)phenyl)quinolin-4-amine] | 0.087 µM | 0.73 µM | 0.4 µM | 0.88 µM | 0.094 µM | 5 µM |
| O=S(=O)(c1ccc(-c2ccc3c(Nc4ccc(OCc5ccccc5)c(Cl)c4)nccc3c2)cc1)N1CCOCC1 [NEU-948, N-(4-(Benzyloxy)-3-chlorophenyl)-6-(4-(morpholinosulfonyl)phenyl)isoquinolin-1-amine] | 0.091 µM | > 50 µM | > 15 µM | > 3 µM | 3.4 µM | > 5 µM |
| CN1CCCN(S(=O)(=O)c2ccc(-c3ccc4nccc(Nc5ccc(OCc6cccc(F)c6)c(Cl)c5)c4c3)cc2)CC1 [NEU-958, N-(3-Chloro-4-((3-fluorobenzyl)oxy)phenyl)-6-(4-((4-methyl-1,4-diazepan-1-yl)sulfonyl)phenyl)quinolin-4-amine] | 0.14 µM | 0.93 µM | 0.4 µM | 2.3 µM | 0.086 µM | 4.3 µM |
